Experimental data from PubChem BioAssay AID2060912 (Molecular Pharmacology Branch, DTP, NCI, 2025).

Test system: HUVEC/MSC spheroids viability
Assay: Human HUVEC/MSC cell line growth inhibition [KRAS2];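 for viability, T/C: percent of DMSO vehicle control luminescence so 100% = untreated viability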
Details: for IC50: curve of first compound; for viability, T/C: stronger effect = lower value
Method in brief: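 Concentration ranges start near each agent's clinical Cmax, or at 10 microM if none is established, and fall by half-log increments. These ranges are tested as single agents and combinations on endothelial/mesenchymal stem cell spheroids lacking tumour cells.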

[1] = second compound 0.0316 µM, first compound 0.0316 µM
[2] = second compound 0.0316 µM, first compound 0.1 µM
[3] = second compound 0.0316 µM, first compound 0.316 µM
[4] = second compound 0.0316 µM, first compound 1 µM
[5] = second compound 0.1 µM, first compound 0.0316 µM
[6] = second compound 0.1 µM, first compound 0.1 µM
[7] = second compound 0.1 µM, first compound 0.316 µM
[8] = second compound 0.1 µM, first compound 1 µM
[9] = second compound 0.316 µM, first compound 0.0316 µM
[10] = second compound 0.316 µM, first compound 0.1 µM
[11] = second compound 0.316 µM, first compound 0.316 µM
[12] = second compound 0.316 µM, first compound 1 µM
[13] = second compound 1 µM, first compound 0.0316 µM
[14] = second compound 1 µM, first compound 0.1 µM
[15] = second compound 1 µM, first compound 0.316 µM
[16] = second compound 1 µM, first compound 1 µM
[17] = second compound 3.16 µM, first compound 0.0316 µM
[18] = second compound 3.16 µM, first compound 0.1 µM
[19] = second compound 3.16 µM, first compound 0.316 µM
[20] = second compound 3.16 µM, first compound 1 µM
[21] = second compound 10 µM, first compound 0.0316 µM
[22] = second compound 10 µM, first compound 0.1 µM
[23] = second compound 10 µM, first compound 0.316 µM
[24] = second compound 10 µM, first compound 1 µM
[25] = second compound 0.0316 µM, first compound 0.00316 µM
[26] = second compound 0.0316 µM, first compound 0.01 µM
[27] = second compound 0.1 µM, first compound 0.00316 µM
[28] = second compound 0.1 µM, first compound 0.01 µM
[29] = second compound 0.316 µM, first compound 0.00316 µM
[30] = second compound 0.316 µM, first compound 0.01 µM
[31] = second compound 1 µM, first compound 0.00316 µM
[32] = second compound 1 µM, first compound 0.01 µM
[33] = second compound 3.16 µM, first compound 0.00316 µM
[34] = second compound 3.16 µM, first compound 0.01 µM
[35] = second compound 10 µM, first compound 0.00316 µM
[36] = second compound 10 µM, first compound 0.01 µM

Compound: CC1(C)CCC(CN2CCN(c3ccc(C(=O)NS(=O)(=O)c4ccc(NCC5CCOCC5)c([N+](=O)[O-])c4)c(Oc4cnc5[nH]ccc5c4)c3)CC2)=C(c2ccc(Cl)cc2)C1 + COc1cc2nc(C)nc(NC(C)c3cc(N)cc(C(F)(F)F)c3)c2cc1OC1CCOC1
- IC50 (second compound 0.0316 µM): 5.09 µM
- IC50 (second compound 0.1 µM): 4.59 µM
- IC50 (second compound 0.316 µM): 4.78 µM
- IC50 (second compound 1 µM): 5.01 µM
- IC50 (second compound 3.16 µM): 5.49 µM
- IC50 (second compound 10 µM): 4.61 µM
- viability, T/C [1]: 105%
- viability, T/C [2]: 116%
- viability, T/C [3]: 105%
- viability, T/C [4]: 96.6%
- viability, T/C (second compound 0.0316 µM, first compound 3.16 µM): 82.3%
- viability, T/C (second compound 0.0316 µM, first compound 10 µM): 6.99%
- viability, T/C [5]: 98.5%
- viability, T/C [6]: 94.6%
- viability, T/C [7]: 102%
- viability, T/C [8]: 100%
- viability, T/C (second compound 0.1 µM, first compound 3.16 µM): 72.8%
- viability, T/C (second compound 0.1 µM, first compound 10 µM): 2.34%
- viability, T/C [9]: 82.7%
- viability, T/C [10]: 104%
- viability, T/C [11]: 76.6%
- viability, T/C [12]: 81.5%
- viability, T/C (second compound 0.316 µM, first compound 3.16 µM): 76.3%
- viability, T/C (second compound 0.316 µM, first compound 10 µM): 5.03%
- viability, T/C [13]: 95.7%
- viability, T/C [14]: 79.5%
- viability, T/C [15]: 84%
- viability, T/C [16]: 92%
- viability, T/C (second compound 1 µM, first compound 3.16 µM): 81%
- viability, T/C (second compound 1 µM, first compound 10 µM): 3.29%
- viability, T/C [17]: 73.1%
- viability, T/C [18]: 105%
- viability, T/C [19]: 110%
- viability, T/C [20]: 95.2%
- viability, T/C (second compound 3.16 µM, first compound 3.16 µM): 87.7%
- viability, T/C (second compound 3.16 µM, first compound 10 µM): 8.97%
- viability, T/C [21]: 61.3%
- viability, T/C [22]: 70.5%
- viability, T/C [23]: 78.9%
- viability, T/C [24]: 68.2%
- viability, T/C (second compound 10 µM, first compound 3.16 µM): 80.6%
- viability, T/C (second compound 10 µM, first compound 10 µM): 5.02%

Compound: CCN1CCN(Cc2ccc(Nc3ncc(F)c(-c4cc(F)c5nc(C)n(C(C)C)c5c4)n3)nc2)CC1 + COc1cc2nc(C)nc(NC(C)c3cc(N)cc(C(F)(F)F)c3)c2cc1OC1CCOC1
- IC50 (second compound 0.0316 µM): > 1 µM
- IC50 (second compound 0.1 µM): > 1 µM
- IC50 (second compound 0.316 µM): > 1 µM
- IC50 (second compound 1 µM): > 1 µM
- IC50 (second compound 3.16 µM): > 1 µM
- IC50 (second compound 10 µM): > 1 µM
- viability, T/C [25]: 93.3%
- viability, T/C [26]: 77%
- viability, T/C [1]: 87.6%
- viability, T/C [2]: 80.3%
- viability, T/C [3]: 93.4%
- viability, T/C [4]: 122%
- viability, T/C [27]: 77.7%
- viability, T/C [28]: 90.9%
- viability, T/C [5]: 83.1%
- viability, T/C [6]: 73.7%
- viability, T/C [7]: 105%
- viability, T/C [8]: 106%
- viability, T/C [29]: 72.5%
- viability, T/C [30]: 92.5%
- viability, T/C [9]: 79.4%
- viability, T/C [10]: 79%
- viability, T/C [11]: 96.1%
- viability, T/C [12]: 121%
- viability, T/C [31]: 76.1%
- viability, T/C [32]: 68.8%
- viability, T/C [13]: 71.2%
- viability, T/C [14]: 77.2%
- viability, T/C [15]: 95.7%
- viability, T/C [16]: 117%
- viability, T/C [33]: 65.8%
- viability, T/C [34]: 74.4%
- viability, T/C [17]: 65.4%
- viability, T/C [18]: 69.9%
- viability, T/C [19]: 77%
- viability, T/C [20]: 103%
- viability, T/C [35]: 63.7%
- viability, T/C [36]: 76.7%
- viability, T/C [21]: 65.7%
- viability, T/C [22]: 56.4%
- viability, T/C [23]: 66.5%
- viability, T/C [24]: 75%

Compound: Cn1ncnc1[C@H]1c2n[nH]c(=O)c3cc(F)cc(c23)N[C@@H]1c1ccc(F)cc1 + COc1cc2nc(C)nc(NC(C)c3cc(N)cc(C(F)(F)F)c3)c2cc1OC1CCOC1
- IC50 (second compound 0.0316 µM): > 0.1 µM
- IC50 (second compound 0.1 µM): > 0.1 µM
- IC50 (second compound 0.316 µM): > 0.1 µM
- IC50 (second compound 1 µM): > 0.1 µM
- IC50 (second compound 3.16 µM): > 0.1 µM
- IC50 (second compound 10 µM): > 0.1 µM
- viability, T/C (second compound 0.0316 µM, first compound 0.000316 µM): 107%
- viability, T/C (second compound 0.0316 µM, first compound 0.001 µM): 110%
- viability, T/C [25]: 118%
- viability, T/C [26]: 89.7%
- viability, T/C [1]: 109%
- viability, T/C [2]: 96.8%
- viability, T/C (second compound 0.1 µM, first compound 0.000316 µM): 89.2%
- viability, T/C (second compound 0.1 µM, first compound 0.001 µM): 96.9%
- viability, T/C [27]: 100%
- viability, T/C [28]: 117%
- viability, T/C [5]: 96%
- viability, T/C [6]: 107%
- viability, T/C (second compound 0.316 µM, first compound 0.000316 µM): 92.9%
- viability, T/C (second compound 0.316 µM, first compound 0.001 µM): 101%
- viability, T/C [29]: 102%
- viability, T/C [30]: 103%
- viability, T/C [9]: 97.3%
- viability, T/C [10]: 89.3%
- viability, T/C (second compound 1 µM, first compound 0.000316 µM): 95.2%
- viability, T/C (second compound 1 µM, first compound 0.001 µM): 89.9%
- viability, T/C [31]: 99.3%
- viability, T/C [32]: 88.9%
- viability, T/C [13]: 89.3%
- viability, T/C [14]: 79.5%
- viability, T/C (second compound 3.16 µM, first compound 0.000316 µM): 90.9%
- viability, T/C (second compound 3.16 µM, first compound 0.001 µM): 104%
- viability, T/C [33]: 85.8%
- viability, T/C [34]: 101%
- viability, T/C [17]: 92.3%
- viability, T/C [18]: 81.1%
- viability, T/C (second compound 10 µM, first compound 0.000316 µM): 72%
- viability, T/C (second compound 10 µM, first compound 0.001 µM): 75.9%
- viability, T/C [35]: 81.9%
- viability, T/C [36]: 66.8%
- viability, T/C [21]: 77.6%
- viability, T/C [22]: 73.3%
